Data as given in ChEMBL document CHEMBL1201862, “PubChem BioAssay data set” (2004).
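Step 1: Grow cells in 96-well plates. Step 2: Expose to compound for 48 hours at 5 concentrations. Step 3: Interpolate endpoints linearly; if unreached, use highest concentration. Here, GI50 denotes the concentration required for 50% inhibition of growth.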 The source made the active and inactive calls. Rule as the data show it: active = GI50 up to about 1.1 µM and inactive = higher.

How the values were obtained:
Experiment in all cases: NCI anticancer screen, dose series, 48 h
[1] = test system: DU-145
[2] = test system: BT-549
[3] = test system: M14
[4] = test system: T47D
[5] = test system: HCT-116
[6] = test system: SK-OV-3
[7] = test system: HCT-15
[8] = test system: ACHN
[9] = test system: NCI-H522
[10] = test system: NCI-H23
[11] = test system: COLO 205
[12] = test system: MDA-MB-231
[13] = test system: UACC-62
[14] = test system: HOP-62
[15] = test system: NCI-H460
[16] = test system: LOX IMVI
[17] = test system: TK-10
[18] = test system: SK-MEL-5
[19] = test system: EKVX
[20] = test system: A498
[21] = test system: KM12
[22] = test system: HCC 2998
[23] = test system: HL-60
[24] = test system: MDA-N
[25] = test system: HOP-92
[26] = test system: K562
[27] = test system: Hs-578T
[28] = test system: MCF7
[29] = test system: OVCAR-3
[30] = test system: A549
[31] = test system: SF-268
[32] = test system: CAKI-1
[33] = test system: SW-620
[34] = test system: SK-MEL-2
[35] = test system: UACC-257
[36] = test system: MOLT-4
[37] = test system: RPMI-8226
[38] = test system: OVCAR-8
[39] = test system: 786-0
[40] = test system: U-251
[41] = test system: IGROV-1
[42] = test system: SF-539
[43] = test system: OVCAR-5
[44] = test system: HT-29
[45] = test system: SNB-19
[46] = test system: MDA-MB-435
[47] = test system: UO-31
[48] = test system: PC-3
[49] = test system: CCRF-CEM
[50] = test system: NCI/ADR-RES
[51] = test system: SK-MEL-28
[52] = test system: SNB-75
[53] = test system: SF-295
[54] = test system: Malme-3M
[55] = test system: SN12C
[56] = test system: NCI-H226
[57] = test system: SR
[58] = test system: OVCAR-4
[59] = test system: RXF 393

Measured: GI50

CC(C)OC(=O)NNc1cc(Cl)ccc1Cl
91.2 µM: [7]
inactive: [1] > 100 µM | [2] 64.3 µM | [3] > 100 µM | [4] 42 µM | [5] 73.3 µM | [6] > 100 µM | [8] > 100 µM | [9] 31.5 µM | [10] > 100 µM | [11] > 100 µM | [12] > 100 µM | [13] 43.7 µM | [14] > 100 µM | [15] 80.7 µM | [16] 67.3 µM | [17] 36.6 µM | [18] 39.4 µM | [19] 30.8 µM | [20] 24.3 µM | [21] 65.3 µM | [22] 61 µM | [23] 21.7 µM | [24] 73.6 µM | [25] 34.8 µM | [26] 19.2 µM | [27] 81.5 µM | [28] 57.9 µM | [29] > 100 µM | [30] 64 µM | [31] 44.8 µM | [32] 79.6 µM | [33] > 100 µM | [34] 65.8 µM | [35] 39.7 µM | [37] 44.5 µM | [38] > 100 µM | [39] > 100 µM | [40] > 100 µM | [41] 55.5 µM | [42] > 100 µM | [43] > 100 µM | [44] > 100 µM | [45] > 100 µM | [46] > 100 µM | [47] > 100 µM | [48] 56.8 µM | [49] 59.7 µM | [50] > 100 µM | [51] > 100 µM | [52] 58.3 µM | [53] 62.8 µM | [54] 35.6 µM | [55] > 100 µM
active: [36] 0.0611 µM

NCCN1C(=O)CN=C(c2ccc(Cl)cc2)c2cc(Cl)ccc21
active: [36] 0.46 µM
inactive: [1] 17.1 µM | [56] 14 µM | [2] 16 µM | [3] 16.1 µM | [4] 21.8 µM | [5] 16.2 µM | [6] 22.4 µM | [8] 18.7 µM | [57] 17.9 µM | [9] 16.1 µM | [10] 18.1 µM | [11] 19.3 µM | [12] 14.3 µM | [13] 17.9 µM | [14] 17.3 µM | [15] 18 µM | [16] 16.2 µM | [17] 16.1 µM | [18] 16.9 µM | [19] 26.2 µM | [20] 19.1 µM | [21] 17.2 µM | [22] 16.5 µM | [23] 16 µM | [24] 16.7 µM | [25] 9.84 µM | [26] 16.3 µM | [27] 16.1 µM | [29] 15.5 µM | [30] 17.1 µM | [31] 14.4 µM | [32] 16.3 µM | [33] 15.7 µM | [34] 16.3 µM | [35] 19 µM | [37] 17.6 µM | [38] 16.7 µM | [39] 15.9 µM | [40] 16.8 µM | [58] 16.2 µM | [41] 13.3 µM | [42] 17.4 µM | [43] 15.7 µM | [44] 16.8 µM | [45] 20.1 µM | [46] 14.9 µM | [47] 13.9 µM | [48] 14.8 µM | [59] 11.5 µM | [49] 15.5 µM | [50] 15.9 µM | [51] > 100 µM | [52] 14.9 µM | [53] 32.8 µM | [54] 14.2 µM | [55] 22.5 µM
16.7 µM: [7]
